Data published in patent US20250296929A1, “NOVEL HEPATOSELECTIVE POLYADENYLATING POLYMERASES INHIBITORS AND THEIR METHOD OF USE” (BARUCH S. BLUMBERG INSTITUTE, priority 2021, published 2025).
Several values for one entry are separate records, joined by “and”; a condition that tells them apart may be missing. Equal entries are not always repeated. Where two headings read alike, the source gives them in different places.

Experiment: Liver distribution after 8 mg/kg oral dose (liver vs plasma)
Assay type: in vivo, CD1 mice
Protocol: Protocol for pharmacokinetic and tissue distribution studies. The pharmacokinetics of the compounds was studied in CD1 mice after intravenous (IV) and oral gavage (PO) administration. Mouse PK studies was conducted at 3 mg/kg (IV) and 8 mg/kg (PO). Plasma samples obtained from dosed animals, at ten time points, including 5, 15 and 30 minutes and 1, 1.5, 2, 4, 6, 8 and 24 hr post-dose for processing to plasma, were prepared for analysis by means of a single step protein precipitation technique, by adding 200 μL of acetonitrile containing an IS mixture (labetalol, imipramine and diclofenac) to 50 μL aliquots of individual subject samples. Samples were mixed by vortex for homogeneity and then subjected to centrifugation at 4000 rpm for 10 min. The supernatant (200 μL) was collected and injected into the LC-MS/MS for analysis. Pharmacokinetic parameters will be calculated using established non-compartmental methods. The liver distribution of the compounds was studied in the PO group and liver tissues were collected at each time point after PO administration. Accurately weighed whole liver tissues were collected in a 50 mL tube, and 3 volumes per weight of water will be added. Tissue samples were homogenized and 50 μL of the homogenates will be processed along with plasma samples as described above.

With COc1cc2c(cc1OCCCCCCC(=O)O)C[C@@H](C(C)C)n1cc(C(=O)O)c(=O)cc1-2 [Example 6, (S)-9-((6-carboxyhexyl)oxy)-6-isopropyl-10-methoxy-2-oxo-6,7-dihydro-2H-pyrido[2,1-a]isoquinoline-3-carboxylic acid] the Liver concentration (0.25 h, individual animals) was 428 ng/g and 372 ng/g and 199 ng/g, the “Ratio (liver/plasma)” value (0.25 h, individual animals) was 41.6 and 19.1 and 10.8 and the Liver concentration (0.5 h, individual animals) was 241 ng/g and 321 ng/g. The “Ratio (liver/plasma)” value (0.5 h, individual animals) was 24.3 and 35.6, the Liver concentration (1 h, individual animals) was 237 ng/g and 404 ng/g and the “Ratio (liver/plasma)” value (1 h, individual animals) was 39.9 and 43.6. The Liver concentration (2 h, individual animals) was 377 ng/g and 299 ng/g and 108 ng/g, the “Ratio (liver/plasma)” value (2 h, individual animals) was 65.8 and 47.3 and the Liver concentration (4 h, individual animals) was 128 ng/g and 179 ng/g. The “Ratio (liver/plasma)” value (4 h, individual animals) was 42.2 and 43.5, the Liver concentration (6 h, individual animals) was 130 ng/g and 43.2 ng/g and 55.6 ng/g and the “Ratio (liver/plasma)” value (6 h, individual animals) was 28.2 and 23.0. For the same molecule, the Liver concentration (8 h, individual animals) was 106 ng/g and 37.6 ng/g and 45.6 ng/g, the “Ratio (liver/plasma)” value (8 h, individual animals) was 17.8 and the concentration at 0.5 h (CD1, mouse, liver, oral, 8 mg/kg, 0.5 h, individual animals) was 366 ng/g. The concentration at 1 h (CD1, mouse, liver, oral, 8 mg/kg, 1 h, individual animals) was 259 ng/g, the concentration at 4 h (CD1, mouse, liver, oral, 8 mg/kg, 4 h, individual animals) was 106 ng/g and the Kp at 0.25 h (CD1, mouse, liver/plasma, oral, 8 mg/kg, 0.25 h, mean, read-out: Ratio (liver/plasma) Mean) was 23.8. The Kp at 0.5 h (CD1, mouse, liver/plasma, oral, 8 mg/kg, 0.5 h, individual animals, read-out: Ratio (liver/plasma)) was 38.9, the Kp at 0.5 h (CD1, mouse, liver/plasma, oral, 8 mg/kg, 0.5 h, mean, read-out: Ratio (liver/plasma) Mean) was 32.9 and the Kp at 1 h (CD1, mouse, liver/plasma, oral, 8 mg/kg, 1 h, individual animals, read-out: Ratio (liver/plasma)) was 63.1. It also gave a Kp at 1 h (CD1, mouse, liver/plasma, oral, 8 mg/kg, 1 h, mean, read-out: Ratio (liver/plasma) Mean) of 48.9, a Kp at 2 h (CD1, mouse, liver/plasma, oral, 8 mg/kg, 2 h, individual animals, read-out: Ratio (liver/plasma)) of 69.6 and a Kp at 2 h (CD1, mouse, liver/plasma, oral, 8 mg/kg, 2 h, mean, read-out: Ratio (liver/plasma) Mean) of 60.9. It also gave a Kp at 4 h (CD1, mouse, liver/plasma, oral, 8 mg/kg, 4 h, individual animals, read-out: Ratio (liver/plasma)) of 28.9, a Kp at 4 h (CD1, mouse, liver/plasma, oral, 8 mg/kg, 4 h, mean, read-out: Ratio (liver/plasma) Mean) of 38.2 and a Kp at 6 h (CD1, mouse, liver/plasma, oral, 8 mg/kg, 6 h, individual animals, read-out: Ratio (liver/plasma)) of 45.6. It also gave a Kp at 6 h (CD1, mouse, liver/plasma, oral, 8 mg/kg, 6 h, mean, read-out: Ratio (liver/plasma) Mean) of 32.3, a Kp at 8 h (CD1, mouse, liver/plasma, oral, 8 mg/kg, 8 h, individual animals, read-out: Ratio (liver/plasma)) of 15.9 and a Kp at 8 h (CD1, mouse, liver/plasma, oral, 8 mg/kg, 8 h, mean, read-out: Ratio (liver/plasma) Mean) of 16.8.
